Series [1] is described as follows: Stability test in buffer (pH 7.4). The class given is physicochemical. Particulars: phosphate buffer/acetonitrile 7:3, 100 mM potassium phosphate buffer (pH 7.4) and acetonitrile 7:3 (v/v), LC/MS; for remaining at 10 min: 10 minutes at 37°C, read-out: Buf. remaining rate (%/10min); for remaining at 1 h: 60 minutes at 37°C, read-out: Buf. remaining rate (%/60min). In a few lines: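 Compound from DMSO solution incubated at 37°C in 100 mM potassium phosphate buffer/acetonitrile 7:3 (v/v) for 0, 10 and 60 min, then quenched with acetonitrile containing formic acid (final 0.1%). Unchanged compound in supernatant quantified by LC/MS; remaining rate (%) = amount at each time / amount at zero time × 100.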

The nature of series [2]: Metabolic stability test in plasma. The series is classed as in vitro ADME, human. Particulars: LC/MS; for remaining at 10 min: unchanged form after 10 minutes at 37°C in human plasma, read-out: Remaining rate in human plasma (%/10min); for remaining at 1 h: unchanged form after 60 minutes at 37°C in human plasma, read-out: Remaining rate in human plasma (%/60min). In a few lines:
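Compound in DMSO spiked into human, mouse or hamster plasma, incubated at 37°C for 0, 10 and 60 minutes, then quenched with acetonitrile/formic acid (final 0.1%). Unchanged compound in supernatant quantified by LC/MS; remaining rate (%) relative to time zero.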

Series [3] in a line: Metabolic stability test in liver S9. The class given is in vitro ADME. As to conditions: pH 7.4, human liver S9 2 mg protein/mL, LC/MS; for remaining at 10 min: unchanged form after 10 minutes at 37°C, read-out: Remaining rate in human liver S9 (%/10min); for remaining at 1 h: unchanged form after 60 minutes at 37°C, read-out: Remaining rate in human liver S9 (%/60min). In a few lines: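 Compound from DMSO solution was incubated at 37°C with human liver S9 (final 2 mg protein/mL) in 100 mM potassium phosphate pH 7.4 with an NADPH-regenerating system for 0, 10 and 60 minutes. Reactions were stopped with acetonitrile/0.1% formic acid. Unchanged compound was measured by LC/MS as remaining rate (%) relative to zero time.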

For the compound `CN(C)C(=O)c1cc(CCCC(=O)Oc2ccc(C(=O)OCC(=O)OCc3ccccc3)cc2)ccc1NC(=O)c1ccccc1-c1ccc(C(F)(F)F)cc1` [Compound 1-78, 4-[4-(3-dimethylcarbamoyl-4-{(4'-trifluoromethylbiphenyl-2-carbonyl)amino}phenyl)butyryloxy]benzoic acid benzyloxycarbonylmethyl ester], the remaining at 10 min in series [1] was found to be 97%; in series [2], 51%; in series [3], 10%. The remaining at 1 h is 97% in series [1], 2% in series [2] and 2% in series [3].

`CN(C)C(=O)c1cc(CCCC(=O)Oc2ccc(C(=O)OCc3ccc(Cl)cc3)cc2)ccc1NC(=O)c1ccccc1-c1ccc(C(F)(F)F)cc1` [Compound 1-79, 4-[4-(3-dimethylcarbamoyl-4-{(4'-trifluoromethylbiphenyl-2-carbonyl)amino}phenyl)butyryloxy]benzoic acid 4-chlorobenzyl ester]: the remaining at 10 min in series [1] came to 96%; in series [2], 0%; in series [3] it was 20%. In addition, the remaining at 1 h in series [1] stood at 95%; in series [2], 0%; in series [3], 4%.

As for `Cc1ccc(C(=O)Nc2ccc(CCCC(=O)Oc3ccc(C(=O)OCc4ccccc4)cc3)cc2C(=O)N(C)C)c(-c2ccc(C(F)(F)F)cc2)n1` [Compound 1-80, 4-[4-(3-dimethylcarbamoyl-4-{[6-methyl-2-(4-trifluoromethylphenyl)pyridine-3-carbonyl]amino}phenyl)butyryloxy]benzoic acid benzyl ester], the remaining at 10 min worked out at 100% in series [1], 4% in series [2] and 5% in series [3]. Also, the remaining at 1 h in series [1] amounted to 101%; in series [2] it was 0%; in series [3], 0%.

As for `Cc1ccc(C(=O)Nc2ccc(CCCC(=O)Oc3ccc(C(=O)OC(C)C)cc3)cc2C(=O)N(C)C)c(-c2ccc(C(F)(F)F)cc2)n1` [Compound 1-81, 4-[4-(3-dimethylcarbamoyl-4-{[6-methyl-2-(4-trifluoromethylphenyl)pyridine-3-carbonyl]amino}phenyl)butyryloxy]benzoic acid isopropyl ester], the remaining at 10 min in series [1] was found to be 99%; in series [2] it was 51%; in series [3], 4%. For the same compound, the remaining at 1 h in series [1] is 97%; in series [2] it was 2%; in series [3] it was 1%.

On to `CN(C)C(=O)c1cc(CCCC(=O)Oc2ccc(C(=O)OCc3ccccn3)cc2)ccc1NC(=O)c1ccccc1-c1ccc(C(F)(F)F)cc1` [Compound 1-82, 4-[4-(3-dimethylcarbamoyl-4-{(4'-trifluoromethylbiphenyl-2-carbonyl)amino}phenyl)butyryloxy]benzoic acid pyridin-2-ylmethyl ester], for which the results for the remaining at 10 min in series [1], in series [2] and in series [3] were 100%, 17% and 0%, respectively. Besides, the remaining at 1 h in series [1] was 103%; in series [2], 0%; in series [3], 0%.

In the case of `CN(C)C(=O)c1cc(CCCC(=O)Oc2ccc(C(=O)OCc3cccnc3)cc2)ccc1NC(=O)c1ccccc1-c1ccc(C(F)(F)F)cc1` [Compound 1-83, 4-[4-(3-dimethylcarbamoyl-4-((4'-trifluoromethylbiphenyl-2-carbonyl)amino}phenyl)butyryloxy]benzoic acid pyridin-3-ylmethyl ester], the results for the remaining at 10 min in series [1], in series [2] and in series [3] were 99%, 39% and 0%, respectively. Moreover, the remaining at 1 h in series [1] amounted to 99%; in series [2] it was 0%; in series [3], 0%.

The values are drawn from patent publication EP1803452A1, “ESTER DERIVATIVE AND PHARMACEUTICAL USE THEREOF” (Japan Tobacco, Inc., priority 2004, dated 2006).
